In US11484483B2, “Topical lotion having sanitizing properties” (Shear Kershman Laboratories, Inc, priority 2020, dated 2022):

System: E. coli strain 25922
Assay: Efficacy Study of E. coli Strain 25922 (coupon touch transfer to TSA plate)
Assay type: cell-based
Conditions: 60 s contact time, Rep 1 and 2
Method: On a coupon, 0.05 mL of the inocula (E. coli strain 25922) was added to the center of each test coupon and left to dry. Using a sterile glove, 0.05 grams of the test lotion was mechanically rubbed onto the test coupon to mimic rubbing hand sanitizer onto the skin of hands. There was a contact time of either 60 seconds or 4 hours allowed to lapse prior to placing the coupon touch transfer to the trypticase soy agar (TSA) plate. The coupon was then placed onto the TSA plate and allowed contact for 15 seconds in 3 different locations. The plates were then incubated for 24 hours at 37° C.

[1] = 0.05 grams lotion on inoculated coupon, TNTC = Too Numerous to Count

Q: How did the “Placement 1/CFU” value [1] turn out when `CC(C)O` [Control 17, isopropyl alcohol] was run?
A: 0 CFU

Q: What about the “Placement 2/CFU” value [1] of the same compound?
A: 0 CFU

Q: And the “Placement 3/CFU” value [1]?
A: 0 CFU

Q: And the “Log Reduction” value (Criteria ~5 Log Reduction in 60 sec.)?
A: 6 Log
